The numbers were not newly measured in patent US20110034521A1, “COMPOUNDS AND METHODS FOR TREATING ZINC MATRIX METALLOPROTEASE DEPENDENT DISEASES” (priority 2007, published 2011), which cites them from elsewhere.

Molecules are shown by their SMILES.

The conditions of series [1]: Sparano et al. 2004.
For series [2] the following is noted: Wojtowwicz-Praga et al. 1997.

As to `CNC(=O)[C@@H](NC(=O)[C@H](CC(C)C)[C@H](O)C(=O)NO)C(C)(C)C` [Marimastat], the toxicity result in series [1] was “musculoskeletal toxicity”.
Turning to `CNC(=O)[C@H](Cc1ccccc1)NC(=O)[C@H](CC(C)C)[C@H](CSc1cccs1)C(=O)NO` [Batismastat], the water solubility entry in series [2] was “poor water solubility”.
